# Assay results as given in patent US20220288052A1, “COMPOUND FOR COMBINATION TREATMENT” (priority 2019, published 2022).
# Read-outs that look alike come from different tables or passages of the source.
# Assays:
# [1] = tested on: rat corpus cavernosum strips; test: Corpus cavernosum contractility
# Procedure: FIG. 29: Original traces showing the effect of compound (I) on resting tone in rat corpus cavernosum strips. Increasing concentrations (10^−9-3×10^−5 M) of compound (I) were added. Compound (I) induced small relaxations, while at the highest concentration (3×10^−5 M) contraction was observed occasionally (lower trace).
# FIG. 30: Average results showing the effect of compound (I) on resting tone in rat corpus cavernosum strips. Increasing concentrations (10^−9-3×10^−5 M) of compound (I) were added. Compound (I) induced small relaxations, while at the highest concentration (3×10^−5 M) contraction was observed occasionally (lower trace). Compound (I) responses were obtained in the presence of vehicle, sildenafil (10^−7 M), guanethidine (10^−5 M), and L-NOARG (10^−4 M). Results are means±s.e. mean of preparations from 5 rats.
# FIG. 31: Original traces showing relaxations to compound (I) in rat corpus cavernosum strips contracted with phenylephrine (Phe). Representative traces show compound (I) relaxation in the presence of vehicle, guanethidine (10^−5 M), L-NOARG (10^−4 M), sildenafil (10^−7 M), in phenylephrine-contracted preparations.
# FIG. 32: Average relaxations induced by compound (I) in rat corpus cavernosum strips. In phenylephrine-contracted preparations, increasing concentrations (10^−9-3×10^−5 M) of compound (I). […]
# NA transporter = NA transporter (Homo sapiens, UniProt P23975); test: ^3H-Nisoxetine binding, human
# Source text: (§1) Compound (I) has been characterized as a monoamine reuptake inhibitor, based on the profile in a series of functional assays (Table 2).
# [2] = Metabolic stability in liver microsomes, monkey; type: in vitro ADME
# Procedure: The metabolic stability of compound (I) was tested in liver microsomes from all in house available species at 1 and 5 μM. One metabolite of 16 mass units higher than parent, was found in all incubations, except with human liver microsomes.
# [3] = Bioavailability study in dog; type: in vivo; conditions: for half-life / AUC(0-inf) / Cmax / Tmax / bioavailability / Vd / clearance: plasma; for bioavailability: 2.5 mg/kg p.o. vs 0.5 mg/kg i.v.
# Procedure: A bioavailability study was also conducted in dogs. […] The i.v. dose, which was given 7 days later, was chosen as 0.5 mg/kg in order to prevent observable CNS effects. The difference between the p.o. and the i.v. dose might overestimate the bioavailability to a certain extent. […] T½ is in the same range in the two dogs and after both p.o. and i.v. administration (1.4-1.7 h).
# [4] = Metabolic stability in human hepatocytes; type: in vitro ADME; conditions: 120 minutes at 10 μM
# Procedure: The stability of compound (I) was tested in human hepatocytes incubating for 120 minutes at 10 μM. The compound was stable in human hepatocytes.
# 5-HT transporter = 5-HT transporter (Homo sapiens, UniProt P31645); test: ^3H-uptake human, 5-HT transporter; type: biochemical
# Source text: as §1
# NMRI mice = test: Mouse forced swim test (mFST); type: in vivo
# Procedure: Compound (I) was tested in two of the most widely used behavioural screens for predicting antidepressant effects in the clinic: the mouse forced swim test (mFST) and mouse tail suspension test (mTST).
# In order to further characterize the role played by 5-HT and DA-ergic neurotransmission in the antidepressant-like effects of compound (I), the potential involvement of 5-HT1A and D1 receptors was investigated in the mFST.
# [5] = tested on: Salmonella typhimurium strains TA 100 and TA 98; test: Ames screening test; type: cell-based; conditions: 1.6 to 5000 μg/plate, presence or absence of S-9 mix
# Procedure: Compound (I) was tested for genotoxicity in the Ames screening test using Salmonella typhimurium strains TA 100 and TA 98. Compound (I) was tested at dose levels of 1.6 to 5000 μg/plate in the presence or absence of S-9 mix.
# DA transporter = biological target: T1, DA transporter (Mus musculus, UniProt Q61327); test: In vivo ^3H-WIN 35.428 binding (DA transporter occupancy), PD/PK
# T1 construct: in vivo DAT transporter occupancy (open bars) in mouse striatum; from tissue; host or cells: mouse striatum (in vivo; C57 mice in the MPTP model)
# Procedure: The relationship between brain concentrations of compound (I) and transporter occupancy was investigated in in vivo ^3H-WIN 35.428 binding in mice. A relationship between increasing plasma and brain concentrations with each increase in dose level, and a corresponding increase in CNS in vivo DA transporter occupancy 90 min post administration. In both cases there was a close correlation between plasma and brain concentrations and in vivo transporter occupancy in brain, the brain to plasma ratio was approximately 4 at 3, 10 and 30 mg/kg (FIG. 1). […] The inhibition of in vivo WIN binding was measured 90 min after p.o. administration of the compound.
# The in vivo receptor occupancy (RO %) of compound (I) was calculated at the MED values (DOSE) in mFST and in the mouse motility test using the formula RO % (estimated)=DOSE 100/(ED50+DOSE). The calculations were based on ED50 values in ex vivo uptake of 5-HT and NA and WIN in vivo binding.
# It is known that the critical factor for psychomimetic side effects of a dopaminergic drug is the speed of inhibition of the DA transporter rather than the increase in DA release per se.
# [6] = po, Female beagle dog, 2.5 mg/kg p.o.
# [7] = po, Male beagle dog, 2.5 mg/kg p.o.
# T1 sequence (Q61327 whole entry): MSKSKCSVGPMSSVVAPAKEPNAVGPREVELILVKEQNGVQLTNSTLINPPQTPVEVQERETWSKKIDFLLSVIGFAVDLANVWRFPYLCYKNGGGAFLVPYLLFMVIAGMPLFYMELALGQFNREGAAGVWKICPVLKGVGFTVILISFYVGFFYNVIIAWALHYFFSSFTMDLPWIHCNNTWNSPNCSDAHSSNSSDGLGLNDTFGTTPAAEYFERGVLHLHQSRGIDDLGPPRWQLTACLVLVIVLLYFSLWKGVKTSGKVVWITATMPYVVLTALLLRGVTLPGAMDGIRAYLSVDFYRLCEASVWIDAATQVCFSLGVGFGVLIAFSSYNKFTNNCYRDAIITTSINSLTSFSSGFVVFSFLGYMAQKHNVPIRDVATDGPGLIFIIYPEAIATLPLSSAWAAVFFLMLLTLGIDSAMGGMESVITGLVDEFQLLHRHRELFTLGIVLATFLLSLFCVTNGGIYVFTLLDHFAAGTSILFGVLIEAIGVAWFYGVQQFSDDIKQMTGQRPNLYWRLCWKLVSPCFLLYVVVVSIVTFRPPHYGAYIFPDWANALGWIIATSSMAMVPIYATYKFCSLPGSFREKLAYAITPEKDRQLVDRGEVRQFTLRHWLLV
# Chain of 5-HT transporter (P31645 whole entry): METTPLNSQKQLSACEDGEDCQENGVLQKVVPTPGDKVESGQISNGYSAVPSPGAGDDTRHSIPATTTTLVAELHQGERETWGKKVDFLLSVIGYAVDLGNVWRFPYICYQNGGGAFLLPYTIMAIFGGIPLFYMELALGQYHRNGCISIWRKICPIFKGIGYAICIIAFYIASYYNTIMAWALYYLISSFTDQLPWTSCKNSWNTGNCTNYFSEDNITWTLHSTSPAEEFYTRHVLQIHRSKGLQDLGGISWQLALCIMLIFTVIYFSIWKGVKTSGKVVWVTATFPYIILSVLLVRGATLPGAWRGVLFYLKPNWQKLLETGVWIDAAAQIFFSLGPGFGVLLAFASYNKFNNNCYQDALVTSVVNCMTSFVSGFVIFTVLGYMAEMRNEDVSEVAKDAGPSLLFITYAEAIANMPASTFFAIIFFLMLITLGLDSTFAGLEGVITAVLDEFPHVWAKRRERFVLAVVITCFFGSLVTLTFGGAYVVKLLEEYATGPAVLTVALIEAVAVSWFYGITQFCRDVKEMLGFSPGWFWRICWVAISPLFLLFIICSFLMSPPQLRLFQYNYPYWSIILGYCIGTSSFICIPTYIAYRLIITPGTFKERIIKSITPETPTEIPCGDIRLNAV
# Chain of NA transporter (P23975 whole entry): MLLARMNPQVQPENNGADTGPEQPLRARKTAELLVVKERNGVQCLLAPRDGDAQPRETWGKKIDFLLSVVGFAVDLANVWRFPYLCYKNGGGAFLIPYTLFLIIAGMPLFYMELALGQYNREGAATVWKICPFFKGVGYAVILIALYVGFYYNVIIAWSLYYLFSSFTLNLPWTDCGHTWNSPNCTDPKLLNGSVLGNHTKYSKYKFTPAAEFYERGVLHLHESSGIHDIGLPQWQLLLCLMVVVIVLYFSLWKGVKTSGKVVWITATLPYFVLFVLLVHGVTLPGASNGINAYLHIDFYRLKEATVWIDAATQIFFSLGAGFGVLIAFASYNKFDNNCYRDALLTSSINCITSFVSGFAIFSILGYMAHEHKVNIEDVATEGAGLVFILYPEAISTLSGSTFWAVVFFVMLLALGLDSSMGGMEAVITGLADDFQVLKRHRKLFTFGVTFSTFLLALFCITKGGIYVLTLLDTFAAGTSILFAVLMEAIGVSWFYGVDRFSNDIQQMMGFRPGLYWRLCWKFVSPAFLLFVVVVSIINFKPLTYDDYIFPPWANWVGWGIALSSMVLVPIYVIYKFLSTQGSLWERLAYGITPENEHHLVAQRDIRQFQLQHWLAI
smiles,measurement,setting,value
"O=c1ccc2ccc(O[C@@H]3C[C@H]4CC[C@@H](C3)N4)cc2o1 [Compound (I), exo-7-(8-aza-bicyclo[3.2.1]oct-3-yloxy)-chromen-2-one]",Effect on resting tone,"[1]; resting corpus cavernosum strips, 10^−9-3×10^−5 M",only small relaxations
same,Relaxation of contracted strips,[1]; strips contracted with phenylephrine (10^−6 M),concentration-dependent relaxations were observed at higher concentrations
same,Ki,NA transporter,270 nM
same,Stability at 1 μM,[2],79%
same,Stability at 5 μM,[2],88%
same,half-life,"[3]; both sexes, beagle, dog, other: p.o. and i.v., the two dogs, after both p.o. and i.v. administration, read-out: T½",84 to 102 min
same,CNS effects,"[3]; dogs, after 2.5 mg/kg p.o.",some CNS effects were observed
same,AUC(0-inf),"[3]; iv, Female beagle dog, 0.5 mg/kg i.v., read-out: AUC(0-∞) i.v.",194 ng·h/mL
same,half-life,"[3]; iv, Female beagle dog, 0.5 mg/kg i.v., read-out: T½ i.v. (converted)",84 min
same,AUC(0-inf),"[3]; iv, Male beagle dog, 0.5 mg/kg i.v., read-out: AUC(0-∞) i.v.",343 ng·h/mL
same,half-life,"[3]; iv, Male beagle dog, 0.5 mg/kg i.v., read-out: T½ i.v. (converted)",96 min
same,Cmax,[3]; [6],339 ng/mL
same,Tmax,[3]; [6],30 min
same,bioavailability,"[3]; po, Female beagle dog",114%
same,AUC(0-inf),"[3]; po, Female beagle dog, 2.5 mg/kg p.o., read-out: AUC(0-∞) p.o.",1110 ng·h/mL
same,half-life,"[3]; po, Female beagle dog, 2.5 mg/kg p.o., read-out: T½ p.o. (converted)",96 min
same,Cmax,[3]; [7],418 ng/mL
same,Tmax,[3]; [7],30 min
same,bioavailability,"[3]; po, Male beagle dog",84%
same,AUC(0-inf),"[3]; po, Male beagle dog, 2.5 mg/kg p.o., read-out: AUC(0-∞) p.o.",1440 ng·h/mL
same,half-life,"[3]; po, Male beagle dog, 2.5 mg/kg p.o., read-out: T½ p.o. (converted)",102 min
same,Vd,[3]; Female beagle dog,5 L/kg
same,clearance,[3]; Female beagle dog,43.3 mL/min/kg
same,Vd,[3]; Male beagle dog,3.4 L/kg
same,clearance,[3]; Male beagle dog,25 mL/min/kg
same,Stability in human hepatocytes,[4],stable
same,IC50,5-HT transporter,1.8 nM
same,Ki,5-HT transporter,2 nM
same,Human transporter ratio,5-HT transporter; 5-HT (reference = 1),1
same,MED,"NMRI mice; mFST (NMRI), p.o. 60 min",1 mg/kg
same,MED,"NMRI mice; mFST, 0.03, 0.1, 0.3 mg/kg p.o. −60 min + WAY100635 0.1 mg/kg s.c. −60 min",0.1 mg/kg
same,MED,"NMRI mice; mFST, 1, 3, 10 mg/kg p.o. −60 min + SCH23390 0.00375 mg/kg s.c. −60 min",10 mg/kg
same,MED,"NMRI mice; mFST, 1, 3, 10 mg/kg p.o. −60 min + WAY100635 1 mg/kg s.c. −60 min",1 mg/kg
same,Leftward shift in dose-response,"NMRI mice; mFST, with low dose of WAY100635",10 fold
same,Rightward shift in dose-response,"NMRI mice; mFST, with non-sedative dose of SCH23390",10 fold
same,Mutagenic activity (genotoxicity),[5],did not show any evidence of mutagenic activity
same,DA RO %,"DA transporter; estimated at MED in mFST (NMRI mice), DOSE 1 mg/kg",9%
same,DA RO %,"DA transporter; estimated at MED in mMotility, DOSE 10 mg/kg",50%
same,In vivo WIN binding time course,"DA transporter; mice, 20 mg/kg p.o.",slow onset of DA transporter blockade in vivo
same,Kp at 1.5 h,"DA transporter; mouse, brain, po, mice, 3, 10 and 30 mg/kg p.o., 90 min post administration, read-out: Brain to plasma ratio",~4
same,ED50,"DA transporter; mouse, po, read-out: ED50 in WIN in vivo binding in mice",9.9 mg/kg
